Where “and” joins values, the source holds several entries; their conditions need not be identical. Identical values can stand only once.
Columns and labels:
SAS (head & neck cancer) = assay: Cell uptake assay in SAS cells; format: cell-based, human; conditions: 0.1 mM
Experimental: (§1) • 1.1.1 15 mL of cell culture medium was placed into a T225 flask. • 1.1.2 The flask was placed in a humidified 37° C., 5% CO2 incubator for 15 minutes to allow medium to equilibrate to the proper pH and temperature. • 1.1.3 The vial was removed from liquid nitrogen and thawed rapidly by placing at 37° C. in a water bath with gentle agitation for 1-2 minutes and then decontaminated by wiping with 70% ethanol before opening in a Class II biological safety cabinet. • 1.1.4 The vial contents were transferred dropwise into 10 mL of cell culture medium in a sterile 15 mL conical tube. • 1.1.5 The cells were centrifuged at 1,300 rpm for 5 minutes. • 1.1.6 The supernatant was aspirated and re-suspended the cells and transferred the cells into T225 flask containing cell culture medium.
(§2) • 1.2.1 Culture medium were renewed every 2-3 days. • 1.2.2 Keep the flask in a humidified 37° C., 5% CO2 incubator
(§3) Cells were harvested and diluted in culture medium to the designated concentration. Then the cells were cultured in T25 flasks, one T25 flask for one sample. 2.2 Formulation of test compounds • 2.2.1 L-Boronophenylalanine (L-BPA, 4-boron-L-phenylalanine, Purity: 95%, Chemical formula: C9H12BNO4, MW: 209.01, CAS: 76410-58-7) and fructose were dissolved in PBS at a molar ratio of 1:5, and then a 1.27 M ratio of 1 N NaOH is added. The mixture was stirred until L-BPA is completely dissolved, and the pH value was titrated to 7.2-7.4 with 1N HCl. • 2.2.2 For test compounds other than BPA, stock solutions were prepared of each compound in DMSO or fructose formulation at a concentration of 20 mM (such that final % DMSO in the cellular assay medium=0.5%)
(§4) • 2.3.1 The cells were seeded overnight (12-18 hours) to allow the cells to adhere well. • 2.3.2 The stock solution of each compound was added to each T25 flask such that the final concentration for each compound is 100 uM (0.1 mM). • 2.3.3 The flasks were placed in a 37° C., […] for 1 hour, 4 hour, and 24 hours, the cells were collected by using 0.25% Trypsin with 0.53 mM EDTA. 2.3.5 Centrifuged at 1,300 rpm for 5 min to collect cell pellets.

B16F10 (melanoma) = assay: Cell uptake assay in B16F10 cells; format: cell-based, mouse; conditions: 0.1 mM
Experimental: as §1, §2, §3, §4

[1] = tested on: NIH-3T3 (normal cell line); assay: Cell uptake assay in NIH-3T3 cells; format: cell-based, mouse; conditions: 0.1 mM
Experimental: as §1, §2, §3, §4

U87-MG (glioblastoma) = assay: Cell uptake assay in U87-MG cells; format: cell-based, human; conditions: 0.1 mM
Experimental: as §1, §2
as §3, with “medium=0.5%) […]” for “medium=0.5%)”

[2] = tested on: SAS, B16F10, U87-MG relative to NIH-3T3; assay: Cell uptake assays, cancer cell lines compared with normal cell line; format: cell-based, human
Experimental: as §1, §2
Cells were harvested and diluted in culture medium to the designated concentration. Then the cells were cultured in T25 flasks, one T25 flask for one sample. 2.2 Formulation of test compounds • 2.2.1 L-Boronophenylalanine (L-BPA, 4-boron-L-phenylalanine, Purity: 95%, Chemical formula: C9H12BNO4, MW: 209.01, CAS: 76410-58-7) and fructose were dissolved in PBS at a molar ratio of 1:5, and then a 1.27 M ratio of 1 N NaOH is added. […]

SMILES	Cell uptake, Mean (ng/10^6 cell), SAS (SAS (head & neck cancer); 1 h)	Cell uptake, Mean (ng/10^6 cell), SAS (SAS (head & neck cancer); 4 h)	Cell uptake, Mean (ng/10^6 cell), SAS (SAS (head & neck cancer); 24 h)	Cell uptake, Mean (ng/10^6 cell), B16F10 (B16F10 (melanoma); 1 h) [ng/10^6 cell]	Cell uptake, Mean (ng/10^6 cell), B16F10 (B16F10 (melanoma); 4 h)	Cell uptake, Mean (ng/10^6 cell), B16F10 (B16F10 (melanoma); 24 h) [ng/10^6 cell]	Cell uptake, Mean (ng/10^6 cell), NIH-3T3 ([1]; 1 h) [ng/10^6 cell]	Cell uptake, Mean (ng/10^6 cell), NIH-3T3 ([1]; 4 h) [ng/10^6 cell]	Cell uptake, Mean (ng/10^6 cell), NIH-3T3 ([1]; 24 h) [ng/10^6 cell]	Cell uptake, Mean (ng/10^6 cell), U87-MG (U87-MG (glioblastoma); 1 h)	Cell uptake, Mean (ng/10^6 cell), U87-MG (U87-MG (glioblastoma); 4 h) [ng/10^6 cell]	Cell uptake, Mean (ng/10^6 cell), U87-MG (U87-MG (glioblastoma); 24 h) [ng/10^6 cell]	Selective uptake by cancer cell lines relative to normal cell line ([2]; SAS, B16F10, U87-MG relative to NIH-3T3)	Uptake in cancer cells relative to Comparator Compounds A and B ([2]; cancer cells)	Cell uptake, Mean (ng/10^6 cell), SAS (SAS (head & neck cancer); 2 h) [ng/10^6 cell]	Cell uptake, Mean (ng/10^6 cell), B16F10 (B16F10 (melanoma); 2 h) [ng/10^6 cell]	Cell uptake, Mean (ng/10^6 cell), NIH-3T3 ([1]; 2 h) [ng/10^6 cell]	Cell uptake, Mean (ng/10^6 cell), U87-MG (U87-MG (glioblastoma); 2 h) [ng/10^6 cell]
N[C@@H](Cc1cccc(B(O)O)c1O)C(=O)O [Comparator Compound B, reference compound]	510 ng/10^6 cell	487 ng/10^6 cell	1465 ng/10^6 cell	131	248 ng/10^6 cell	662	186	122	217	380 ng/10^6 cell	519	250						
N[C@@H](Cc1cccc(B(O)O)c1O)C(=O)O [Compound 1, (S)-2-amino-3-(3-borono-2-hydroxyphenyl)propanoic acid]	863 ng/10^6 cell	1400 ng/10^6 cell	2625 ng/10^6 cell	158	282 ng/10^6 cell	669	109	194	122	175 ng/10^6 cell	713	1315	selective partitioning into cancer cells relative to normal cells	increased uptake in cancer cells relative to Comparator Compounds A and B				
N[C@@H](Cc1c(F)ccc(B(O)O)c1O)C(=O)O [Compound 3, (2S)-2-amino-3-[3-(dihydroxyboranyl)-6-fluoro-2-hydroxyphenyl]propanoic acid]	1320 ng/10^6 cell	1295 ng/10^6 cell	1580 ng/10^6 cell	66.5	255 ng/10^6 cell	196	105	196	182	307 ng/10^6 cell	621	555						
N[C@@H](Cc1ccc(F)c(B(O)O)c1O)C(=O)O [Compound 4, (2S)-2-amino-3-[3-(dihydroxyboranyl)-4-fluoro-2-hydroxyphenyl]propanoic acid]	33.1 ng/10^6 cell	191 ng/10^6 cell	886 ng/10^6 cell	29.5	39.1 ng/10^6 cell	48.1	28.3	36.9	55.3	14.3 ng/10^6 cell	40	117						
N[C@@H](Cc1cc(Cl)cc(B(O)O)c1O)C(=O)O [Compound 6, (2S)-2-amino-3-[5-chloro-3-(dihydroxyboranyl)-2-hydroxyphenyl]propanoic acid]	373 ng/10^6 cell	796 ng/10^6 cell	1735 ng/10^6 cell	39.6	75.9 ng/10^6 cell	222	20.3	59.8	50.8	58.6 ng/10^6 cell	171	244						
N[C@@H](Cc1cc(F)cc(B(O)O)c1O)C(=O)O [Compound 8, (2S)-2-amino-3-13-(dihydroxyboranyl)-5-fluoro-2-hydroxyphenyllpropanoic acid]	561 ng/10^6 cell	693 ng/10^6 cell	1605 ng/10^6 cell	115	185 ng/10^6 cell	615	51.7	119	101	173 ng/10^6 cell	505	545						
N[C@@H](Cc1ccc(B(O)O)cc1)C(=O)O [L-BPA, 4-Borono-L-phenylalanine]	425 ng/10^6 cell and 407 ng/10^6 cell and 260 ng/10^6 cell and 254 ng/10^6 cell and 218 ng/10^6 cell	379 ng/10^6 cell and 352 ng/10^6 cell and 251 ng/10^6 cell and 219 ng/10^6 cell and 217 ng/10^6 cell	423 ng/10^6 cell and 444 ng/10^6 cell and 501 ng/10^6 cell and 261 ng/10^6 cell and 345 ng/10^6 cell and 336 ng/10^6 cell		247 ng/10^6 cell and 224 ng/10^6 cell and 188 ng/10^6 cell and 191 ng/10^6 cell and 185 ng/10^6 cell					391 ng/10^6 cell and 343 ng/10^6 cell and 233 ng/10^6 cell and 196 ng/10^6 cell and 297 ng/10^6 cell					394	986	177	223

From patent US20240132524A1, “SMALL MOLECULES FOR BORON NEUTRON CAPTURE THERAPY” (Aviko Radiopharmaceuticals, LLC, priority 2022, published 2024)
